The text below walks through data of ChEMBL document CHEMBL5325478, “The unique activity of saponin: Induction of cytotoxicity in HTLV-1 infected cells” (Bioorg Med Chem, 2023).

Calls of active or inactive are those of the source. The rule behind the calls is not given here.

Assay [1] deals with Jurkat. Kind of assay: Cytotoxicity against human Jurkat cells assessed as reduction in cell viability at 50 uM incubated for 3 days by MTT assay. It is filed as functional, cell-based. The following applies: time 3.0 day. A general note: Tetrazolium dyes change colour on reduction, which living cells bring about.
Assay [2] deals with MT2. Kind of assay: Suppression of GAG protein cleavage in human MT-2 cells infected with HTLV-1 assessed as increase in intracellular Pr53 protein expression at 50 uM incubated for 3 days by immunoblot analysis. The following applies: time 3.0 day. The format is cell-based. A general note: A western blot detects proteins with antibodies after separation by electrophoresis.
Assay [3] concerns MT2. Nature of the assay: Suppression of GAG protein cleavage in human MT-2 cells infected with HTLV-1 assessed as reduction in p19 protein expression in supernatant at 50 uM incubated for 3 days by immunoblot analysis. The format is cell-based. The following applies: time 3.0 day.
For assay [4], the system named is MT2. Kind of assay: Suppression of GAG protein cleavage in human MT-2 cells infected with HTLV-1 assessed as reduction in intracellular p28 protein expression at 50 uM incubated for 3 days by immunoblot analysis. The format is cell-based. The following applies: time 3.0 day.
Assay [5] deals with MT2. Nature of the assay: Cytotoxicity against human MT2 cells infected with HTLV-1 assessed as reduction in cell viability at 50 uM incubated for 3 days by MTT assay. The format is functional, cell-based. The following applies: time 3.0 day.
Assay [6] has as its system MT2. Kind of assay: Cytotoxicity against human MT2 cells infected with HTLV-1 assessed as reduction in cell viability at 100 uM incubated for 3 days by MTT assay. It is filed as functional, cell-based. The following applies: time 3.0 day.
Assay [7] concerns MT2. Nature of the assay: Preferential cytotoxicity against human MT2 cells infected with HTLV-1 assessed as reduction in cell viability at 10 to 25 uM incubated for 3 days by MTT assay. The format is functional, cell-based. The following applies: dose 10-25 µM, time 3.0 day.
Assay [8] concerns Jurkat. Kind of assay: Cytotoxicity against human Jurkat cells assessed as reduction in cell viability at 100 uM incubated for 3 days by MTT assay. It is filed as functional, cell-based. The following applies: time 3.0 day.
In assay [9] the test system is MT2. Kind of assay: Induction of GAG aggregation in top cross section of human MT-2 cells infected with HTLV-1 assessed as ratio of cells with aggregated GAG at 50 uM incubated for 2 hrs by immunostaining based confocal microscopic analysis (reference value: 4.3%). It is filed as cell-based.
For assay [10], the system named is HeLa. Nature of the assay: Induction of GAG aggregation in human HeLa cells transfected with Gag-Venus expression vector assessed as increase in number of bright GAG dots at 50 uM incubated for 2 hrs by immunostaining based confocal microscopic analysis. The format is cell-based.
The test system of assay [11] is HeLa. Nature of the assay: Upregulation of membrane localized GAG protein expression in human HeLa cells transfected with GAG-FLAG expression vector assessed as effect on E-cadherin protein expression at 50 uM by chemiluminescence based immunoblotting analysis. It is filed as functional, cell-based.
The subject of assay [12] is MT2. Kind of assay: Induction of GAG aggregation in middle cross section of human MT-2 cells infected with HTLV-1 assessed as ratio of cells with aggregated GAG at 50 uM incubated for 2 hrs by immunostaining based confocal microscopic analysis (reference value: 44.1%). The format is cell-based.
The test system of assay [13] is HeLa. Kind of assay: Induction of GAG aggregation in human HeLa cells transfected with Gag-FLAG expression vector assessed as increase in number of bright GAG dots at 50 uM incubated for 2 hrs by immunostaining based confocal microscopic analysis. It is filed as cell-based.

Consider `CC1(C)CC[C@]2(C(=O)O)CC[C@]3(C)C(=CC[C@@H]4[C@@]5(C)CC[C@H](O)[C@@](C)(CO)[C@@H]5CC[C@]43C)[C@@H]2C1`, for which the result in the assay on Jurkat [1] and with MT2 [5] was Active. The outcome with MT2 [2], in the assay on MT2 [3] and in the assay on MT2 [4] was inactive.

As for `CC1(C)CC[C@]2(C(=O)O)CC[C@]3(C)C(=CC[C@@H]4[C@@]5(C)CC[C@H](O[C@@H]6OC[C@H](O)[C@H](O)[C@H]6O)[C@@](C)(CO)[C@@H]5CC[C@]43C)[C@@H]2C1`, the outcome with Jurkat [1], with MT2 [6], in the assay with MT2 [5] and in the assay on Jurkat [8] was Active. In addition, the outcome in the assay on MT2 [7] was inactive.

On to `C[C@@H]1O[C@@H](O[C@H]2[C@H](O)[C@@H](O)[C@H](OC[C@H]3O[C@@H](OC(=O)[C@]45CCC(C)(C)C[C@H]4C4=CC[C@@H]6[C@@]7(C)CC[C@H](O[C@@H]8OC[C@H](O[C@@H]9O[C@@H](C)[C@H](O)[C@@H](O)[C@H]9O)[C@H](O)[C@H]8O[C@@H]8O[C@H](CO)[C@@H](O)[C@H](O)[C@H]8O)[C@@](C)(CO)[C@@H]7CC[C@@]6(C)[C@]4(C)CC5)[C@H](O)[C@@H](O)[C@@H]3O)O[C@@H]2CO)[C@H](O)[C@H](O)[C@H]1O`, for which the outcome with MT2 [6] and in the assay on Jurkat [8] was inactive.

In the case of `CC1(C)CC[C@]2(C(=O)O[C@@H]3O[C@H](CO[C@@H]4O[C@H](CO)[C@@H](O)[C@H](O)[C@H]4O)[C@@H](O)[C@H](O)[C@H]3O)CC[C@]3(C)C(=CC[C@@H]4[C@@]5(C)CC[C@H](O[C@@H]6OC[C@H](O)[C@H](O)[C@H]6O[C@@H]6OC[C@@H](O)[C@H](O)[C@H]6O)[C@@](C)(CO)[C@@H]5CC[C@]43C)[C@@H]2C1`, the outcome in the assay with MT2 [6] and with Jurkat [8] was inactive.

Take `CC1(C)CC[C@]2(C(=O)O[C@@H]3O[C@H](CO[C@@H]4O[C@H](CO)[C@@H](O)[C@H](O)[C@H]4O)[C@@H](O)[C@H](O)[C@H]3O)CC[C@]3(C)C(=CC[C@@H]4[C@@]5(C)CC[C@H](O[C@@H]6OC[C@H](O)[C@H](O)[C@H]6O)[C@@](C)(CO)[C@@H]5CC[C@]43C)[C@@H]2C1`: the result with MT2 [6] and with Jurkat [8] was inactive.

On to `C[C@@H]1O[C@@H](O[C@H]2[C@H](O[C@H]3CC[C@@]4(C)[C@@H](CC[C@]5(C)[C@@H]4CC=C4[C@@H]6CC(C)(C)CC[C@]6(C(=O)O[C@@H]6O[C@H](CO[C@@H]7O[C@H](CO)[C@@H](O[C@@H]8O[C@@H](C)[C@H](O)[C@@H](O)[C@H]8O)[C@H](O)[C@H]7O)[C@@H](O)[C@H](O)[C@H]6O)CC[C@]45C)[C@]3(C)CO)OC[C@H](O)[C@@H]2O)[C@H](O)[C@H](O)[C@H]1O`, for which the outcome in the assay with MT2 [6] and with Jurkat [8] was inactive.

Regarding `CC1(C)CC[C@]2(C(=O)O)CC[C@]3(C)C(=CC[C@@H]4[C@@]5(C)CC[C@H](O[C@@H]6OC[C@H](O)[C@H](O)[C@H]6O[C@@H]6O[C@H](CO)[C@@H](O)[C@H](O)[C@H]6O)[C@@](C)(CO)[C@@H]5CC[C@]43C)[C@@H]2C1`, the results for the Ratio with MT2 [9] and in the assay with MT2 [12] were 7.3% and 41.3%, respectively. For the same molecule, the result in the assay with Jurkat [1], in the assay with MT2 [2] and in the assay on HeLa [11] was inactive. In addition, the result with MT2 [3], in the assay on MT2 [6], in the assay on HeLa [10], with MT2 [4], in the assay on MT2 [5] and in the assay with HeLa [13] was Active. Also, the result in the assay on Jurkat [8] was Active.

Take `CC1(C)CC[C@]2(C(=O)O)CC[C@]3(C)C(=CC[C@@H]4[C@@]5(C)CC[C@H](O[C@@H]6OC[C@H](O)[C@H](O)[C@H]6O[C@@H]6OC[C@@H](O)[C@H](O)[C@H]6O)[C@@](C)(CO)[C@@H]5CC[C@]43C)[C@@H]2C1`: the result in the assay with Jurkat [1], in the assay with MT2 [6], with MT2 [5] and in the assay on Jurkat [8] was Active. Also, the outcome in the assay with MT2 [7] was inactive.
